Laboratory results: the supplement of paper PMC10307832

Key:
Assay in all cases: relative viability (nuclei count vs DMSO), 5 days (fraction); higher = more cells survive
Bleomycin + Luminespib = compound: CC1=C(N=C(N=C1N)[C@H](CC(=O)N)NC[C@@H](C(=O)N)N)C(=O)N[C@@H]([C@H](C2=CN=CN2)OC3C(C(C(C(O3)CO)O)O)OC4C(C(C(C(O4)CO)O)OC(=O)N)O)C(=O)N[C@H](C)[C@H]([C@H](C)C(=O)N[C@@H]([C@@H](C)O)C(=O)NCCC5=NC(=CS5)C6=NC(=CS6)C(=O)NCCC[S+](C)C)O [Bleomycin] + CCNC(=O)c1noc(-c2cc(C(C)C)c(O)cc2O)c1-c1ccc(CN2CCOCC2)cc1 [Luminespib] (partner 0.01 µM); conditions: main component drawn
Summary of the method: (§1)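 Relative viability was taken as the ratio of nuclei in treated wells to nuclei in vehicle wells. Lung cancer cell lines in 1536-well plates received compounds by pin tool one day after seeding, either one drug alone or a fixed anchor-drug dose plus five library-drug doses (not always all listed) in √10 steps. Nuclei were counted on 4× images after 5 days of treatment, and values are medians of duplicate plates.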

Bleomycin + Pictilisib = compound: CC1=C(N=C(N=C1N)[C@H](CC(=O)N)NC[C@@H](C(=O)N)N)C(=O)N[C@@H]([C@H](C2=CN=CN2)OC3C(C(C(C(O3)CO)O)O)OC4C(C(C(C(O4)CO)O)OC(=O)N)O)C(=O)N[C@H](C)[C@H]([C@H](C)C(=O)N[C@@H]([C@@H](C)O)C(=O)NCCC5=NC(=CS5)C6=NC(=CS6)C(=O)NCCC[S+](C)C)O [Bleomycin] + CS(=O)(=O)N1CCN(Cc2cc3nc(-c4cccc5[nH]ncc45)nc(N4CCOCC4)c3s2)CC1 [Pictilisib] (partner 1 µM); conditions: main component drawn
Summary of the method: as §1

Etoposide + OSI-027 = compound: COc1cc([C@@H]2c3cc4c(cc3[C@@H](O[C@@H]3O[C@@H]5CO[C@@H](C)O[C@H]5[C@H](O)[C@H]3O)[C@H]3COC(=O)[C@H]23)OCO4)cc(OC)c1O [Etoposide] + COc1cccc2cc(-c3nc([C@H]4CC[C@H](C(=O)O)CC4)n4ncnc(N)c34)[nH]c12 [OSI-027] (partner 0.5 µM)
Summary of the method: as §1

Etoposide + AZD7762 = compound: COc1cc([C@@H]2c3cc4c(cc3[C@@H](O[C@@H]3O[C@@H]5CO[C@@H](C)O[C@H]5[C@H](O)[C@H]3O)[C@H]3COC(=O)[C@H]23)OCO4)cc(OC)c1O [Etoposide] + NC(=O)Nc1cc(-c2cccc(F)c2)sc1C(=O)N[C@H]1CCCNC1 [AZD7762] (partner 0.2 µM)
Summary of the method: as §1

Cell Line | relative viability (Bleomycin + Luminespib; first compound 0.01 µM) | relative viability (Bleomycin + Luminespib; first compound 0.03162 µM) | relative viability (Bleomycin + Luminespib; first compound 0.1 µM) | relative viability (Bleomycin + Luminespib; first compound 0.3162 µM) | relative viability (Bleomycin + Luminespib; first compound 1 µM) | relative viability (Bleomycin + Pictilisib; first compound 0.03162 µM) | relative viability (Bleomycin + Pictilisib; first compound 0.1 µM) | relative viability (Bleomycin + Pictilisib; first compound 0.3162 µM) | relative viability (Bleomycin + Pictilisib; first compound 1 µM) | relative viability (Etoposide + OSI-027; first compound 0.01 µM) | relative viability (Etoposide + OSI-027; first compound 0.03162 µM) | relative viability (Etoposide + OSI-027; first compound 0.1 µM) | relative viability (Etoposide + OSI-027; first compound 0.3162 µM) | relative viability (Etoposide + OSI-027; first compound 1 µM) | relative viability (Etoposide + AZD7762; first compound 0.01 µM) | relative viability (Etoposide + AZD7762; first compound 0.03162 µM) | relative viability (Etoposide + AZD7762; first compound 0.1 µM) | relative viability (Etoposide + AZD7762; first compound 0.3162 µM) | relative viability (Etoposide + AZD7762; first compound 1 µM) | relative viability (Bleomycin + Pictilisib; first compound 0.01 µM)
NCI-H441 | 0.31 | 0.331 | 0.251 | 0.223 | 0.216 | 0.439 | 0.482 | 0.316 | 0.267 | 0.625 | 0.638 | 0.416 | 0.267 | 0.224 | 1.31 | 0.966 | 1.1 | 0.512 | 0.4 | –
NCI-H460 | 0.0436 | 0.0291 | 0.0214 | 0.0162 | 0.0138 | 0.285 | 0.244 | 0.0358 | 0.1 | 0.601 | 0.731 | 0.415 | 0.0887 | 0.0402 | 0.61 | 0.704 | 0.407 | 0.0776 | 0.0538 | 0.307
NCI-H596 | 0.755 | 0.617 | 0.552 | 0.335 | 0.377 | 0.419 | 0.329 | 0.268 | 0.261 | 0.695 | 0.831 | 0.467 | 0.56 | 0.546 | 0.923 | 1.21 | 0.662 | 1.3 | 0.705 | 0.379
NCI-H647 | 0.111 | 0.169 | 0.104 | 0.0882 | 0.0947 | 0.254 | 0.191 | 0.105 | 0.0791 | 0.579 | 0.627 | 0.456 | 0.491 | 0.267 | 0.417 | 0.323 | 0.307 | 0.165 | 0.0849 | 0.251
NCI-H650 | 0.541 | 0.729 | 0.694 | 0.2 | 0.15 | 0.764 | 0.728 | 0.483 | 0.25 | 0.571 | 0.506 | 0.44 | 0.443 | 0.249 | 0.859 | 0.977 | 0.563 | 0.538 | 0.207 | 0.628
NCI-H727 | 0.375 | 0.376 | 0.357 | – | 0.223 | 0.299 | 0.268 | 0.239 | 0.357 | 0.724 | 0.674 | – | 0.542 | 0.513 | 0.647 | 0.582 | 0.405 | 0.527 | 0.579 | 0.375
NCI-H838 | 0.269 | 0.176 | 0.142 | 0.119 | 0.162 | 0.28 | 0.18 | 0.156 | 0.202 | 0.37 | 0.43 | 0.307 | 0.403 | 0.325 | 0.884 | 0.857 | 0.805 | 0.787 | 0.722 | 0.414
NCI-H1355 | 0.672 | 0.606 | 0.698 | 0.304 | 0.289 | 0.458 | 0.358 | 0.214 | 0.214 | 0.383 | 0.396 | 0.3 | 0.345 | 0.219 | 0.746 | 0.862 | 0.501 | 0.586 | 0.305 | 0.425
NCI-H1395 | 0.648 | 0.648 | 0.54 | 0.397 | 0.47 | 0.6 | 0.476 | 0.686 | 0.489 | 0.625 | 0.759 | 0.506 | 0.605 | 0.469 | 0.423 | 0.435 | 0.4 | 0.375 | 0.362 | 0.579
NCI-H1437 | 1.01 | 0.999 | 1 | 0.63 | 0.585 | 0.407 | 0.24 | 0.146 | 0.224 | 1.04 | 0.891 | 0.423 | 0.635 | 0.31 | 1.03 | 1.11 | 1.14 | 1.07 | 0.722 | 0.47
NCI-H1651 | 0.538 | 0.574 | 0.402 | 0.257 | 0.205 | 0.517 | 0.44 | 0.249 | 0.153 | 0.591 | 0.641 | 0.438 | 0.44 | 0.155 | 0.476 | 0.508 | 0.287 | 0.274 | 0.186 | 0.576
NCI-H1666 | 0.733 | 0.657 | 0.583 | 0.395 | 0.436 | 0.375 | 0.391 | 0.183 | 0.256 | 0.853 | 0.812 | 0.678 | 0.528 | 0.408 | 0.852 | 0.99 | 0.814 | 0.583 | 0.532 | 0.428
NCI-H1734 | 0.167 | 0.187 | 0.198 | 0.13 | 0.147 | 0.411 | 0.357 | 0.267 | 0.22 | 0.636 | 0.617 | 0.406 | 0.497 | 0.302 | 0.561 | 0.538 | 0.333 | 0.306 | 0.19 | 0.382
NCI-H1755 | 0.582 | 0.695 | 0.22 | 0.33 | 0.244 | 0.498 | 0.385 | 0.282 | 0.247 | 0.69 | 0.659 | 0.609 | 0.641 | 0.585 | 0.45 | 0.487 | 0.407 | 0.403 | 0.52 | 0.429
NCI-H1792 | 0.393 | 0.424 | 0.553 | 0.239 | 0.251 | 0.231 | 0.217 | 0.102 | 0.122 | 0.509 | 0.699 | 0.51 | 0.696 | 0.537 | 0.485 | 0.661 | – | 0.471 | 0.122 | 0.301
